Data on 42 compounds can be found in ChEMBL document CHEMBL1128273, “Quantitative structure-activity relationships of the inhibition of Pneumocystis carinii dihydrofolate reductase by 4,6-diamino-1,2-dihydro-2,2-dimethyl-1-(X-phenyl)-s-triazines” (J Med Chem, 1995).

Tested on in the first data set: not listed separately
Briefly: Partition coefficient (logP). Type of data set: physicochemical. To be noted: octanol/water.
In the case of `CN(C)C(=O)c1cccc(COc2ccc(N3C(N)=NC(N)=NC3(C)C)cc2Cl)c1`, the logP is -1.84.
Still for that read-out and setting: in the case of `CC1(C)N=C(N)N=C(N)N1c1ccc(CCCCc2ccc(S(=O)(=O)F)cc2Cl)c(Cl)c1` it was 2.42.

For another data set, the target named is T1, Dihydrofolate reductase (Homo sapiens, UniProt P00374).
T1 sequence (P00374 whole entry): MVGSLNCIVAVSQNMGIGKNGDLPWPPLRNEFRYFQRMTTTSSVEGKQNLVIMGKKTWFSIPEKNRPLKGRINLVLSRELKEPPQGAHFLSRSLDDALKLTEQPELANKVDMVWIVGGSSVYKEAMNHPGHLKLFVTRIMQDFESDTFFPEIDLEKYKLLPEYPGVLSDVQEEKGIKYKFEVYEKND
Briefly: Inhibition of human dihydrofolate reductase (DHFR). To be noted: read-out: Log 1/Ki (converted).
Turning to `CC1(C)N=C(N)N=C(N)N1c1cccc(SCc2ccccc2)c1`, the Ki was 42.7 nM.
`CC1(C)N=C(N)N=C(N)N1c1cccc(COc2cccc3ccccc23)c1`: the Ki is 135 nM.

Tested on in another data set: not listed separately
Briefly: Selectivity index as the ratio of Ki value towards Human DHFR to that of Pneumocystis carinii DHFR.
Conditions: not given
For `CC1(C)N=C(N)N=C(N)N1c1cccc(SCc2ccccc2)c1`, the Selectivity index was 1.18.
On the same count and under the same terms, in the case of `CC1(C)N=C(N)N=C(N)N1c1cccc(OCC23CC4CC(CC(C4)C2)C3)c1` it was 1.66; in that of `CC1(C)N=C(N)N=C(N)N1c1cccc(COc2cccc3ccccc23)c1`, 1.38.
On the same count and under the same terms, the same measure for `CCOc1cc(Cc2cnc(N)nc2N)cc(OCC)c1-n1cccc1` [EPIROPRIM]: 0.53.

A further data set deals with T2, Dihydrofolate reductase (Pneumocystis carinii, UniProt P16184).
T2 sequence (P16184 whole entry): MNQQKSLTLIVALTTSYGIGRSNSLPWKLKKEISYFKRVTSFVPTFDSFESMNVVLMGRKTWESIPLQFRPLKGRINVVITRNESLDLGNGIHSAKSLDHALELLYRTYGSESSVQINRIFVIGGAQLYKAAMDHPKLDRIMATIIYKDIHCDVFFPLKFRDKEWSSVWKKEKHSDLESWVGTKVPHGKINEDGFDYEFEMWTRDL
Conditions: not given
Regarding `CCCCCCOc1ccc(N2C(N)=NC(N)=NC2(C)C)cc1`, the Ki is 100 nM.
Same read-out and setting: in the case of `CCCCCCCCCCCCCCOc1cccc(N2C(N)=NC(N)=NC2(C)C)c1` it was 331 nM; in that of `CC1(C)N=C(N)N=C(N)N1c1cccc(SCc2ccccc2)c1`, 2.82 nM.
Compound `CC1(C)N=C(N)N=C(N)N1c1cccc(COc2cccc(-c3ccccc3)c2)c1` gave a Ki of 4.47 nM.
The same measure, in the same setting: in the case of `CCCCOc1ccc(N2C(N)=NC(N)=NC2(C)C)cc1` it was 631 nM.
Still for that read-out and setting: the same measure for `COc1cccc(OCc2cccc(N3C(N)=NC(N)=NC3(C)C)c2)c1`: 7.76 nM; for `CC1(C)N=C(N)N=C(N)N1c1cccc([N+](=O)[O-])c1`: 132 nM.
`CCCCCOc1ccc(N2C(N)=NC(N)=NC2(C)C)cc1` gave a Ki of 257 nM.
On the same count and under the same terms, the same measure for `CC1(C)N=C(N)N=C(N)N1c1cccc(C(O)c2ccccc2)c1` (stereo not drawn): 1170 nM; for `CC1(C)N=C(N)N=C(N)N1c1cccc(OCCCCOc2ccccc2)c1`: 38 nM.
The same measure, in the same setting: the same measure for `CCCCCCCCCOc1cccc(N2C(N)=NC(N)=NC2(C)C)c1`: 6.76 nM; for `CCCCCCCCCCc1ccc(N2C(N)=NC(N)=NC2(C)C)cc1`: 15.8 nM; for `Cc1ccc(N2C(N)=NC(N)=NC2(C)C)cc1`: 166 nM.
Same read-out and setting: in the case of `CCCCCCOc1cccc(N2C(N)=NC(N)=NC2(C)C)c1` it was 21.4 nM; in that of `CC1(C)N=C(N)N=C(N)N1c1cccc(CNc2cc(C(N)=O)cc(C(N)=O)c2)c1`, 15.1 nM; in that of `CC(=O)Nc1cccc(OCc2cccc(N3C(N)=NC(N)=NC3(C)C)c2)c1`, 3.24 nM.
`CC1(C)N=C(N)N=C(N)N1c1cccc(COc2cccc(Cl)c2)c1` gave a Ki of 12 nM.
On the same count and under the same terms, the same measure for `CC1(C)N=C(N)N=C(N)N1c1cccc(OCC23CC4CC(CC(C4)C2)C3)c1`: 17 nM; for `CCCCCc1ccc(OCc2cccc(N3C(N)=NC(N)=NC3(C)C)c2)cc1`: 17 nM; for `CCOC(=O)c1cccc(N2C(N)=NC(N)=NC2(C)C)c1`: 2340 nM.
On the same count and under the same terms, in the case of `CC1(C)N=C(N)N=C(N)N1c1ccc(C(F)(F)F)cc1` it was 132 nM; in that of `CCCCCCCc1ccc(N2C(N)=NC(N)=NC2(C)C)cc1`, 6.31 nM.
Same read-out and setting: the same measure for `CCCCCCCCc1ccc(N2C(N)=NC(N)=NC2(C)C)cc1`: 6.31 nM; for `CCOc1cccc(N2C(N)=NC(N)=NC2(C)C)c1`: 6310 nM.
On to `CCCCCCCCCCCOc1cccc(N2C(N)=NC(N)=NC2(C)C)c1`, for which the Ki is 18.6 nM.
Same read-out and setting: in the case of `CC(C)c1cccc(OCc2cccc(N3C(N)=NC(N)=NC3(C)C)c2)c1` it was 4.79 nM; in that of `Cc1cccc(OCc2cccc(N3C(N)=NC(N)=NC3(C)C)c2)c1`, 19.5 nM.
The same measure, in the same setting: the same measure for `CC1(C)N=C(N)N=C(N)N1c1cccc(COc2cccc(C#N)c2)c1`: 8.32 nM.
Same read-out and setting: the same measure for `CC1(C)N=C(N)N=C(N)N1c1cccc(OCc2ccccc2)c1`: 64.6 nM; for `CC1(C)N=C(N)N=C(N)N1c1cccc(SCc2ccc(Cl)cc2)c1`: 2.63 nM.
`CC1(C)N=C(N)N=C(N)N1c1cccc(COc2cccc(NC(N)=O)c2)c1` gave a Ki of 4.57 nM.
The same measure, in the same setting: in the case of `CC(C)(C)c1cccc(N2C(N)=NC(N)=NC2(C)C)c1` it was 214 nM.
Same read-out and setting: in the case of `CCCCCCc1ccc(N2C(N)=NC(N)=NC2(C)C)cc1` it was 7.94 nM; in that of `CCc1cccc(OCc2cccc(N3C(N)=NC(N)=NC3(C)C)c2)c1`, 4.17 nM; in that of `CC1(C)N=C(N)N=C(N)N1c1ccc(O)cc1`, 2510 nM.
Compound `CSc1ccc(N2C(N)=NC(N)=NC2(C)C)cc1` showed a Ki of 251 nM.
Same read-out and setting: in the case of `CC1(C)N=C(N)N=C(N)N1c1cccc(COc2cccc(CO)c2)c1` it was 25.1 nM.
The same measure, in the same setting: the same measure for `CC1(C)N=C(N)N=C(N)N1c1cccc(COc2cccc3ccccc23)c1`: 5.37 nM.
`CCOc1cc(Cc2cnc(N)nc2N)cc(OCC)c1-n1cccc1` [EPIROPRIM] had a Ki of 17.4 nM.
On the same count and under the same terms, the same measure for `CC1(C)N=C(N)N=C(N)N1c1cccc(OCCOc2cccc(C(F)(F)F)c2)c1`: 22.4 nM.

For orientation: logP means the decadic logarithm of the partition coefficient of the neutral form, usually between octanol and water. Read a low logP as lower lipophilicity.
